Values of other authors, collected in publication PMC5745029 (Bioconjugate chemistry, 2010).

Biological target: T1, human apical sodium dependent bile acid transporter (ASBT) (Homo sapiens, UniProt Q12908)
T1 sequence (Q12908 1-348): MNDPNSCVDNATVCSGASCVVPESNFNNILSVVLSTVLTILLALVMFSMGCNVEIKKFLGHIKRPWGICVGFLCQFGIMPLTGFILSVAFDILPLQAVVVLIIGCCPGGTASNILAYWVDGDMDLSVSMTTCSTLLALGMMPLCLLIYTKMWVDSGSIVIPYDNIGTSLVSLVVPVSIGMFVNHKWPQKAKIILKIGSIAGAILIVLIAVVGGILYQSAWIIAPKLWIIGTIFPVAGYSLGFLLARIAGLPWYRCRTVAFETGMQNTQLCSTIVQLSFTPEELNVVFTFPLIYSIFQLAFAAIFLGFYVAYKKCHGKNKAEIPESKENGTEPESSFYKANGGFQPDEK
Conditions: ASBT-MDCK monolayer

Compound: C[C@H](CCC(=O)O)[C@H]1CC[C@H]2[C@@H]3[C@H](O)C[C@@H]4C[C@H](O)CC[C@]4(C)[C@H]3CC[C@]12C [CDCA, chenodeoxycholate]
- ASBT inhibition among native bile acids: most potent inhibitor among native bile acids
